In patent US10526316B2, “Quinoxaline and pyridopyrazine derivatives as PI3Kβ inhibitors” (Janssen Pharmaceutica NV, priority 2015, dated 2020):
Read-outs that look alike come from different tables or passages of the source.

Experiments:
[1] = tested on: Akt phosphorylated at Ser473 in PC-3 cells; experiment: Cellular assay: phosphorylation of Akt at Ser473 in PC-3 cells (MSD ELISA); format: cell-based; settings: read-out: IC50 pAkt_S473
Method in brief: (§1)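 PC-3 cells were exposed to compound or 0.3% DMSO for 60 min at 37° C, 5% CO2, then lysed in ice-cold buffer. Phospho-Akt was captured on site-specific antibody-coated plates and detected with Sulfo-tag anti-total Akt by electrochemiluminescence. IC50 values came from five-concentration response curves.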

PI3Kβ = biological target: T1, PI3Kβ (Homo sapiens, UniProt P42338); experiment: Enzyme binding assay (KINOMEscan, DiscoveRx); settings: PIK3Cβ_h, read-out: Kd PIK3Cβ_h
T1 construct: purchased DiscoveRx Corporation, San Diego (contract service, KINOMEscan)
Method in brief: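 KINOMEscan binding platform; read-out is the inhibitor binding constant Kd (nM).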

PI3Kδ = biological target: T2, PI3Kδ (Homo sapiens, UniProt O00329); experiment: Enzyme binding assay (KINOMEscan, DiscoveRx); settings: PIK3Cδ_h
T2 construct: purchased DiscoveRx Corporation, San Diego (contract service, KINOMEscan)
T2 sequence (O00329 1-1044): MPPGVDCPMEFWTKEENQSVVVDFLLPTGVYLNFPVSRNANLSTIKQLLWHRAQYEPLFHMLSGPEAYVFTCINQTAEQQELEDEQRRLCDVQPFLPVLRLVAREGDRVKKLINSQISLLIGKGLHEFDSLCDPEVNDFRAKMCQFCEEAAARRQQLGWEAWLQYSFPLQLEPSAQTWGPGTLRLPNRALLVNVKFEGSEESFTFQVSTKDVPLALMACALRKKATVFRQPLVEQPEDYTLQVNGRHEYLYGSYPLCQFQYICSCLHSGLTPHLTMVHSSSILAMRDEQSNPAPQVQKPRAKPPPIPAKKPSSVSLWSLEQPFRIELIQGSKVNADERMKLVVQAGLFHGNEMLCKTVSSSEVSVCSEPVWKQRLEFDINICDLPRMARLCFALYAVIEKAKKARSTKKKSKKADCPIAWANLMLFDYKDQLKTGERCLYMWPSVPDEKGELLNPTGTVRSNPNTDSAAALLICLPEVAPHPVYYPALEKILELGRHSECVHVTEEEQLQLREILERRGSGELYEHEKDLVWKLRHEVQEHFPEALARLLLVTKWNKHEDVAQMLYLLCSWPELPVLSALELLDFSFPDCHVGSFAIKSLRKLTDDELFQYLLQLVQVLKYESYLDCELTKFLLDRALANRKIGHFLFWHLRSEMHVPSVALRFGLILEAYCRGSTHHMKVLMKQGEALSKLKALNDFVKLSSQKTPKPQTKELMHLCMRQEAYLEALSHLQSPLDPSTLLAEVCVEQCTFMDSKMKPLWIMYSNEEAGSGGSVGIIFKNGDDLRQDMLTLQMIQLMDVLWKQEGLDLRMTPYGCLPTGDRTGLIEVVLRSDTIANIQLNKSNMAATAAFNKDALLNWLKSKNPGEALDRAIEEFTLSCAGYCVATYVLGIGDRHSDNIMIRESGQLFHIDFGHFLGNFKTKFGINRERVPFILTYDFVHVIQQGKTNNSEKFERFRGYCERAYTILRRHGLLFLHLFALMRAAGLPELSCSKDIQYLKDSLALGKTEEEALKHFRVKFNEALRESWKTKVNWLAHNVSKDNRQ
Method in brief: (§2)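 KINOMEscan readout; values are kinase binding affinities.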

kinase enzymes [2] = biological target: T3, kinase enzymes (Homo sapiens, UniProt P42345); experiment: Enzyme binding assay (KINOMEscan, DiscoveRx), further kinases of Table A; settings: MTOR_h
T3 construct: purchased DiscoveRx Corporation, San Diego (contract service, KINOMEscan)
Method in brief: as §2

kinase enzymes [3] = biological target: T4, kinase enzymes (Homo sapiens, UniProt P42336); experiment: as above; settings: PIK3Cα_h
T4 construct: purchased DiscoveRx Corporation, San Diego (contract service, KINOMEscan)
Method in brief: as §2

kinase enzymes [4] = biological target: T5, kinase enzymes (Homo sapiens, UniProt P48736); experiment: as above; settings: PIK3Cγ_h
T5 construct: purchased DiscoveRx Corporation, San Diego (contract service, KINOMEscan)
Method in brief: as §2

[5] = tested on: Akt phosphorylated at Thr308 in PC-3 cells; experiment: Cellular assay: phosphorylation of Akt at Thr308 in PC-3 cells (MSD ELISA); format: cell-based; settings: read-out: IC50 pAkt_Thr308
Method in brief: as §1

[6] = PC-3 cells, 60 min compound incubation, MSD ELISA
[7] = Homo sapiens, PC-3, 1 h, PC-3 cells, 60 min compound incubation, MSD ELISA

T4 sequence (P42336 whole entry): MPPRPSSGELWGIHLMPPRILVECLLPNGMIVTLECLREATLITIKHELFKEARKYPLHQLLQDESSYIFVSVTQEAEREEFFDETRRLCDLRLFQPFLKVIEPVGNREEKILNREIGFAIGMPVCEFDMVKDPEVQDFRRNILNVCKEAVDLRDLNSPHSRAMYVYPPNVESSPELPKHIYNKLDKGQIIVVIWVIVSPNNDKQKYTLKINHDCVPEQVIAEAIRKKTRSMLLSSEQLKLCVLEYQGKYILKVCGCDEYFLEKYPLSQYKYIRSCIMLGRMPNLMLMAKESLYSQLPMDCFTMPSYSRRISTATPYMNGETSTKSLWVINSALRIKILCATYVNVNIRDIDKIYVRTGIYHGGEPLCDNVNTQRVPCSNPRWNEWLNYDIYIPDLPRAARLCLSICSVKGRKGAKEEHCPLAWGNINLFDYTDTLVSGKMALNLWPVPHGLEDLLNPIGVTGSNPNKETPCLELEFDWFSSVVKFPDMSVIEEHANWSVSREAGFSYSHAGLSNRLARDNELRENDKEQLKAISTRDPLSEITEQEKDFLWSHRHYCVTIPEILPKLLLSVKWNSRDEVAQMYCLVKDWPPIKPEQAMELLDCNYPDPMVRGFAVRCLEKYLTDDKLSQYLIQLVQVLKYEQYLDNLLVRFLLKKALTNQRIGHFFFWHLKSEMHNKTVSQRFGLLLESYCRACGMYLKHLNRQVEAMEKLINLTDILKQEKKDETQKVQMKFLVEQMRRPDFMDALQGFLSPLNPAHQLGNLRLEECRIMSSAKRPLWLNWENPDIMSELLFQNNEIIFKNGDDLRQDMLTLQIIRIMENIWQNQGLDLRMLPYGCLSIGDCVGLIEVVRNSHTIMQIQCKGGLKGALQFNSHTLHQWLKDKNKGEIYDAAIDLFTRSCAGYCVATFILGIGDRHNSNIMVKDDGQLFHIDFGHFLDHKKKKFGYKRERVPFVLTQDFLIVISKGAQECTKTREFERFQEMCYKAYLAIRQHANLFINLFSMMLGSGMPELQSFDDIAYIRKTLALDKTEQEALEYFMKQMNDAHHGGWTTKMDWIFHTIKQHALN
T1 sequence (P42338 whole entry): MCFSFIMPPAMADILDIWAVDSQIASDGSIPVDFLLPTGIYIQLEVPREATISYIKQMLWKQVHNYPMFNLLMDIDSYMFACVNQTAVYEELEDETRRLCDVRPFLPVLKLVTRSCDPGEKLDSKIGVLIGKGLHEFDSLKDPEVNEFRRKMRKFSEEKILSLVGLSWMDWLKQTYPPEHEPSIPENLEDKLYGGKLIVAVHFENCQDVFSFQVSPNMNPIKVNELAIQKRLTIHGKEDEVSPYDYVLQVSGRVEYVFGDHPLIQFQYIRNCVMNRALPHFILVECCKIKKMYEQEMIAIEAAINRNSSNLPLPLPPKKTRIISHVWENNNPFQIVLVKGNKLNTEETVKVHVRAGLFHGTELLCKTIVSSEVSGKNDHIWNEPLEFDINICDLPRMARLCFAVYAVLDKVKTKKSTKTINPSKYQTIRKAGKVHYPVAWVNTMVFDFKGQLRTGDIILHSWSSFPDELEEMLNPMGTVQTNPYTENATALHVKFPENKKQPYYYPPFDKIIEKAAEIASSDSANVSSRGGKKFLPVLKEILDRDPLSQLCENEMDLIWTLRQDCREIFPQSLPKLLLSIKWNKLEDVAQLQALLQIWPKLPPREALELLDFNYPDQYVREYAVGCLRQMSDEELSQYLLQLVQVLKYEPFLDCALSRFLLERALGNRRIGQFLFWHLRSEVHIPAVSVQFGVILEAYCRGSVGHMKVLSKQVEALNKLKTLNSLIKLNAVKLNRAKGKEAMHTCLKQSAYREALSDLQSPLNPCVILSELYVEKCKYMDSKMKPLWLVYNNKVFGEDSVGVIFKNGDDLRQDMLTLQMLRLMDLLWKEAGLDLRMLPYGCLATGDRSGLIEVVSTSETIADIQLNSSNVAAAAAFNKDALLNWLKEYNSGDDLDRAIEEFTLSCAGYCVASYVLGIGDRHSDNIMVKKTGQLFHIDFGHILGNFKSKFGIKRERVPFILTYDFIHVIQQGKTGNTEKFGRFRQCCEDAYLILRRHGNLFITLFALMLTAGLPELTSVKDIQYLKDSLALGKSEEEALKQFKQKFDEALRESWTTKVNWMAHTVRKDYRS
T5 sequence (P48736 whole entry): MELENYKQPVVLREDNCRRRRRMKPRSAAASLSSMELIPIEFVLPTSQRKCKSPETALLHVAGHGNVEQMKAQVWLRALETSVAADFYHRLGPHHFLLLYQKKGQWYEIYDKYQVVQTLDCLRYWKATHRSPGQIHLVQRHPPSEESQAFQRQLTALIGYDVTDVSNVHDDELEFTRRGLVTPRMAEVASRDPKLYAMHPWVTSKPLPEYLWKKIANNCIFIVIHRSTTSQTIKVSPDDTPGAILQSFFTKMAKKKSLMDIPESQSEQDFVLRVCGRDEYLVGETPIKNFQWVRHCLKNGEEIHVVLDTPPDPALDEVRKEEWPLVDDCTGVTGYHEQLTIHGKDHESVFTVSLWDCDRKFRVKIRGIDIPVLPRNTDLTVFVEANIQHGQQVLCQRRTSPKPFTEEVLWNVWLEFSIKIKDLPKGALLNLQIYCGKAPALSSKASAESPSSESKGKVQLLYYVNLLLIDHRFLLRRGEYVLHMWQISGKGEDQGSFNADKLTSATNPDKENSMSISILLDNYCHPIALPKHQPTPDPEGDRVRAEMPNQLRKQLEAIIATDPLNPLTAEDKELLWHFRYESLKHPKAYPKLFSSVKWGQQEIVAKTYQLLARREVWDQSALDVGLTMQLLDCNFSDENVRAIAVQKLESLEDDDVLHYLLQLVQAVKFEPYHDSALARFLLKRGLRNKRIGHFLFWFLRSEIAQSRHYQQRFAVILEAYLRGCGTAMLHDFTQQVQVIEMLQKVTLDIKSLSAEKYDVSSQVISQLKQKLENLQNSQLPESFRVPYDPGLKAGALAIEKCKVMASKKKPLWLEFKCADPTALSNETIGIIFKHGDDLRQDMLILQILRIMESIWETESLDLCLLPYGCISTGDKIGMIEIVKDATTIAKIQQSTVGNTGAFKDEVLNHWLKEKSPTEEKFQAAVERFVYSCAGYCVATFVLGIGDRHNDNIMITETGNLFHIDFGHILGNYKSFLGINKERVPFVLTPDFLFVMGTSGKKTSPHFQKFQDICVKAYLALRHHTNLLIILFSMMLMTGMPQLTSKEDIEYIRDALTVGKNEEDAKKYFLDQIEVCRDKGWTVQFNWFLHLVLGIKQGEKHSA

SMILES	IC50 [1, 6]	Kd (PI3Kβ)	Kd (PI3Kδ)	Kd (kinase enzymes [2])	Kd (kinase enzymes [3])	Kd (kinase enzymes [4])	melting point	IC50 [5, 6]	IC50 [1, 7]	IC50 [5, 7]	IC50 ([1]; Homo sapiens, PC-3, 1 h)	IC50 ([5]; Homo sapiens, PC-3, 1 h)
CC(Nc1cc(F)cc(F)c1)c1cc(C(=O)N(C)C)cc2ncc(N3CCOCC3)nc12 (single isomer, unassigned) [Compound 13]	> 513 nM	182 nM	5.89 µM	> 30.2 µM	23.9 µM	> 30.2 µM	217 °C	> 513 nM				
CC(Nc1cc(C(=O)N(C)C)cc2ncc(N3CCOCC3)nc12)c1cc(F)cc(F)c1 (centres unmarked) [Compound 402]		44 nM	4.07 µM	> 30.2 µM	4.47 µM	> 30.2 µM	80 °C		> 513 nM	> 513 nM		
CC(Nc1cc(F)cc(F)c1)c1cc(CNCC(F)(F)F)cc2ncc(N3CCOCC3)nc12 (single isomer, unassigned) [Compound 162]	209 nM	9 nM	1.23 µM	> 30.2 µM	3.98 µM	24.5 µM	80 °C	91 nM				
CC(Nc1cc(F)cc(F)c1)c1cncc2ncc(N3CCOCC3)nc12 (centres unmarked) [Compound 153]		8 nM	1.17 µM	16.2 µM	5.37 µM	2.69 µM	90 °C		316 nM	316 nM		
Cc1c(F)cccc1NCc1cc(C(=O)NCCN(C)C)cc2ncc(N3CCOCC3)nc12 [Compound 328]							98 °C		9 nM	9 nM		
CNCCN(C)C(=O)c1cc(C2CCCN2c2cc(F)cc(F)c2)c2nc(N3CCOCC3)cnc2c1 (centres unmarked) [Compound 18]		0.1 nM	0.001 µM				80 °C				1 nM	0.3 nM
CC(Nc1cc(F)cc(F)c1)c1cc(C(=O)NS(N)(=O)=O)cc2ncc(N3CCOCC3)nc12 (single isomer, unassigned) [Compound 243b]	> 513 nM	14 nM	3.39 µM	1.35 µM	1.66 µM	1.95 µM	200 °C	> 513 nM				
CC(Nc1cc(F)cc(F)c1)c1cc(C(=O)NCCN(C)C)cc2ncc(N3CCOCC3)nc12 (centres unmarked) [Compound 183]		0.1 nM			2.51 µM	1.74 µM	145 °C		6 nM	3 nM		
C[C@H](Nc1cc(F)cc(F)c1)c1cc(C(=O)NCCN(C)C)cc2ncc(N3CCOCC3)nc12 [Compound 185]		29 nM			5.75 µM	4.27 µM	152 °C		~331 nM	148 nM		
CN(C)C(=O)c1cc(C2CCCN2c2cc(F)cc(F)c2)c2nc(N3CCOCC3)cnc2c1 (centres unmarked) [Compound 26]		2 nM	0.117 µM		0.174 µM	1.32 µM	80 °C		4 nM	~1.35 nM		
C[C@H](Nc1cccc(F)c1)c1cc(C(=O)NCCO)cc2ncc(N3CCOCC3)nc12 [Compound 118]		204 nM	10.2 µM		14.2 µM	2.85 µM	237 °C		> 513 nM	> 513 nM		
CC(Oc1cc(F)cc(F)c1)c1cc(C(=O)NCCO)cc2ncc(N3CCOCC3)nc12 (single isomer, unassigned) [Compound 200]		2400 nM	> 30.2 µM	> 30.2 µM	> 30.2 µM	> 30.2 µM	115 °C					
CC(c1cc(CO)cc2ncc(N3CCOCC3)nc12)N(C)c1cccc(F)c1 (centres unmarked) [Compound 111]		16 nM	1.82 µM		6.03 µM	1.48 µM	80 °C		389 nM	162 nM		
CC(Oc1ccc(F)c(F)c1)c1cc(C(=O)N2CCN3CCC[C@@H]3C2)cc2ncc(N3CCOCC3)nc12 (mixture of isomers) [Compound 375]		117 nM	2.19 µM	> 30.2 µM	18.6 µM	> 30.2 µM	80 °C					
CC(Nc1cccc(F)c1)c1cc(C(=O)N2CCC[C@H]2CO)cc2ncc(N3CCOCC3)nc12 (single isomer, unassigned) [Compound 115]	66 nM	2 nM	0.324 µM	> 30.2 µM	1.66 µM		327 °C	31 nM				
C[C@@H](Nc1cc(F)cc(F)c1)c1cc(C(=O)NCCN(C)C)cc2ncc(N3CCOCC3)nc12 [Compound 184]		0.2 nM		18.9 µM	0.599 µM	0.994 µM	157 °C		2 nM	2 nM		

Continued, values first:

IC50 [1, 6]	Kd (PI3Kβ)	Kd (PI3Kδ)	Kd (kinase enzymes [2])	Kd (kinase enzymes [3])	Kd (kinase enzymes [4])	melting point	IC50 [5, 6]	IC50 [1, 7]	IC50 [5, 7]	IC50 ([1]; Homo sapiens, PC-3, 1 h)	IC50 ([5]; Homo sapiens, PC-3, 1 h)	SMILES
42 nM	0.3 nM	0.068 µM	> 30.2 µM	2.19 µM	6.17 µM	80 °C	26 nM					CC(Nc1ccc(F)c(F)c1)c1cc(C(=O)N(C)C2CCNC2)cc2ncc(N3CCOCC3)nc12 (centres unmarked) [Compound 322b]
> 513 nM	457 nM	7.59 µM	17.4 µM	21.4 µM	11 µM	134 °C	> 513 nM					CC(Oc1cccc(F)c1)c1cc(C(=O)NCCO)cc2ncc(N3CCOCC3)nc12 (single isomer, unassigned) [Compound 334b]
> 513 nM	2290 nM	25.7 µM	15.8 µM	11 µM	6.61 µM	196 °C	> 513 nM					CC(Nc1cccc(F)c1)c1cc(C(=O)NCC(=O)O)cc2ncc(N3CCOCC3)nc12 (single isomer, unassigned) [Compound 393b]
	21 nM	2.82 µM	20.4 µM	3.98 µM	14.1 µM	80 °C						CCOC(=O)CNC(=O)c1cc(C(C)Nc2cccc(F)c2)c2nc(N3CCOCC3)cnc2c1 (centres unmarked) [Compound 392a]
	1780 nM	24.5 µM	> 30.2 µM	> 30.2 µM	> 30.2 µM	199.7 °C						COC(=O)c1cc(C(C)Nc2cccc(F)c2)c2nc(N3CCOCC3)cnc2c1 (single isomer, unassigned) [Compound 262a]
	324 nM	17.4 µM	> 30.2 µM	23.4 µM	8.13 µM	123 °C						[2H]C([2H])(O)C([2H])([2H])NC(=O)c1cc(C(C)Nc2cccc(F)c2)c2nc(N3CCOCC3)cnc2c1 (single isomer, unassigned) [Compound 408b]
	69 nM	5.13 µM	> 30.2 µM	11.5 µM	> 30.2 µM	136 °C						CC(Nc1cccc(F)c1)c1cc(C(=O)N2CCC[C@H](O)C2)cc2ncc(N3CCOCC3)nc12 (single isomer, unassigned) [Compound 320b]
	1380 nM	18.2 µM	> 30.2 µM	> 30.2 µM	29.5 µM	170 °C						CC(C)NCCNC(=O)c1cc(C(C)Nc2cc(F)c(F)c(F)c2)c2nc(N3CCOCC3)cnc2c1 (single isomer, unassigned) [Compound 283b]
